According to patent US8604053B2, “TRPV1 antagonists” (AbbVie Inc., priority 2008, dated 2013):

Assays:
[1] = Rat telemetry protocol, core body temperature; assay type: in vivo; details: core body temperature of rats one hour post dosing, 100 μmol/kg p.o., relative to vehicle
Method: Male, Sprague Dawley rats, 225-250 grams were anesthetized with Sevoflurane (Abbott Laboratories). Rats were placed on a heating pad and covered with a sterile surgical drape. A ventral midline abdominal incision was made and sterile cotton tip applicators were used to gently move internal tissue and expose the abdominal aorta for implantation of the telemetry catheter (Data Sciences International; TL11M2-050-PXT). Blood flow was temporarily stopped to the lower extremities (5-7 min) with Diffenbach clamps to allow the insertion of the telemetry catheter into the abdominal aorta. Once inserted, a sterile cellulose patch was placed over the catheter/aorta and secured using a small amount of tissue adhesive (Vetbond, 3M). Once catheter placement was complete, the clamps were removed and blood flow was restored to the lower extremities. Thetransmitter was placed in the intraperitoneal cavity. The transmitter suture rib was sewn into the abdominal sutures to secure it in place. The skin was closed using sterile wound clips and the animal removed from Sevoflurane. Buprenex ([…] s.c.; Phoenix) was administered for post-operative analgesia. Animals were maintained on a heating pad until ambulatory, and then individually housed with food and water ad lib. Surgical staples were removed after 7-10 days post-implantation. Rats were allowed a 2-week post-surgical recovery period before treatment with test compound. Oral dosing (p.o.) was at time zero, with rats receiving a single dose of vehicle (10% EtOH, 20% Tween-80, 70% PEG-400) or a 100 μmol/kg dose of compound dissolved in vehicle. Temperature measurements were recorded every 15 minutes for the duration of the study (24 hours).
Representative compounds described herein have the novel property of having limited transient temperature effect on core body temperature of a mammal (e.g. rats). For example, compounds tested alter core body temperature of rats by less than about +0.5° C. at about 1 hour after administration of a single dose (100 μmol/kg) of the test compounds orally, for example, in the range from about −2.5° C. to less than about +0.5° C., from about −0.5° C. to less than about +0.5° C.; or from about −0.3° C. to about +0.3° C.
The term “core body temperature” as used herein, means the temperature measured in the intraperitoneal cavity.

[2] = target: T1, human TRPV1 receptor (hTRPV1) (Homo sapiens, UniProt Q8NER1); assay: Capsaicin activation assay (Ca2+ influx, FLIPR); assay type: cell-based; details: hTRPV1 in 1321N1 cells, 0.05 μM capsaicin
T1 construct: expressed in transfected cells
Method: Dulbecco's modified Eagle medium (D-MEM) (with 4.5 mg/mL glucose) and fetal bovine serum were obtained from Hyclone Laboratories, Inc. (Logan, Utah). Dulbecco's phosphate-buffered saline (D-PBS) (with 1 mg/mL glucose and 3.6 mg/l Na pyruvate, without phenol red), L-glutamine, hygromycin B, and Lipofectamine® were obtained from Life Technologies (Grand Island, N.Y.). G418 sulfate was obtained from Calbiochem-Novabiochem Corp. (San Diego, Calif.). Capsaicin (8-methyl-N-vanillyl-6-nonenamide) was obtained from Sigma-Aldrich, Co. (St. Louis, Mo.). Fluo-4 AM (N-[4-[6-[(acetyloxy)methoxy]-2,7-difluoro-3-oxo-3H-xanthen-9-yl]-2-[2-[2-[bis[2-[(acetyloxy)methoxy]-2-oxyethyl]amino]-5-methyl-phenoxy[ethoxy]phenyl]-N-[2-[(acetyloxy)methoxy]-2-oxyethyl]-glycine, (acetyloxy)methyl ester) was purchased from Molecular Probes (Eugene, Oreg.).
The cDNAs for the human TRPV1 receptor (hTRPV1) were isolated by reverse transcriptase-polymerase chain reaction (RT-PCR) from human small intestine poly A+ RNA supplied by Clontech (Palo Alto, Calif.) using primers designed surrounding the initiation and termination codons identical to the published sequences (Hayes et al. Pain 2000, 88, 205-215). The resulting cDNA PCR products were subcloned into pClneo mammalian expression vector (Promega) and fully sequenced using fluorescent dye-terminator reagents (Prism, Perkin-Elmer Applied Biosystems Division) and a Perkin-Elmer Applied Biosystems Model 373 DNA sequencer or Model 310 genetic analyzer. Expression plasmids encoding the hTRPV1 cDNA were transfected individually into 1321N1 human astrocytoma cells using Lipofectamine®. Forty-eight hours after transfection, the neomycin-resistant cells were selected with growth medium containing 800 μg/mL Geneticin (Gibco BRL). Surviving individual colonies were isolated and screened for TRPV1 receptor activity. Cells expressing recombinant homomeric TRPV1 receptors were maintained at 37° C. in D-MEM containing 4 mM L-glutamine, 300 μg/mL G418 (Cal-biochem) and 10% fetal bovine serum under a humidified 5% CO2 atmosphere.
The functional activity of compounds at the TRPV1 receptor was determined with a Ca^2+ influx assay and measurement of intracellular Ca^2+ levels ([Ca^2+]i). All compounds were tested over an 11-point half-log concentration range. Compound solutions were prepared in D-PBS (4× final concentration), and diluted serially across 96-well v-bottom tissue culture plates using a Biomek 2000 robotic automation workstation (Beckman-Coulter, Inc., Fullerton, Calif.). A 0.2 μM solution of the TRPV1 agonist capsaicin was also prepared in D-PBS. The fluorescent Ca^2+ chelating dye Fluo-4 AM was used as an indicator of the relative levels of [Ca^2+]i in a 96-well format using a Fluorescence Imaging Plate Reader (FLIPR)(Molecular Devices, Sunnyvale, Calif.). Cells were grown to confluency in 96-well black-walled tissue culture plates. Then, prior to the assay, the cells were loaded with 100 μL per well of Fluo-4 AM (2 μM, in D-PBS) for 1-2 hours at 23° C. Washing of the cells was performed to remove extracellular Fluo-4 AM (2×1 mL D-PBS per well), and afterward, the cells were placed in the reading chamber of the FLIPR instrument. 50 μL of the compound solutions were added to the cells at the 10 second time mark of the experimental run. Then, after a 3-minute time delay, 50 μL of the capsaicin solution was added at the, 190 second time mark (0.05 μM final concentration)(final volume=200 μL) to challenge the TRPV1 receptor. Time length of the experimental run was 240 seconds. Fluorescence readings were made at 1 to 5 second intervals over the course of the experimental run. The peak increase in relative fluorescence units (minus baseline) was calculated from the 190 second time mark to the end of the experimental run, and expressed as a percentage of the 0.05 μM capsaicin (control) response. […]

human TRPV1 = target: T2, human TRPV1 (Homo sapiens, UniProt Q8NER1); assay: Acid activation assay, ratiometric calcium imaging; assay type: cell-based; details: HEK293-F cells expressing human TRPV1, Example 56 at 3 μM; for block of TRPV1-mediated increase in intracellular calcium concentration in response to pH 5.5: acid pH 5.5; for block of TRPV1-mediated increase in intracellular calcium concentration in response to capsaicin: capsaicin 1 μM
T2 construct: expressed in transfected cells; host or cells: HEK293-F cells, transient transfection
Method: The differential effects of TRPV1 antagonists on capsaicin- or acid-induced responses were verified by ratiometric calcium imaging. Transiently transfected HEK293-F cells expressing human TRPV1 were incubated with 5 μM Fura-2AM for 30 minutes at 37° C. Intracellular calcium concentration was measured on an imaging system consisting of the X-Cite™ 120 Fluorescence Illumination System (EXFO) and a Digital Camera (C4742-95, Hamamatsu Photonics) connected to an Olympus 1×71 microscope. Through the control of Slide Book 4.2 software, fluorescence was measured during excitation at 340 and 380 nm; the ratio of the fluorescence at both excitation wavelengths (F340/F380) was monitored. D-PBS, pH 7.4 (Invitrogen, catalog no. 14287) was used as the extracellular solution. Acidic buffer was prepared by titrating D-PBS, pH 7.4 with 7 N HCl to pH 5.5. Agonists and antagonists were prepared in the pH 7.4 or 5.5 solutions. Rapid solution switch was achieved by using a ValveLink system.
Over the time 1250-second course, the cells were challenged sequentially with solutions containing Example 56 (3 μM), Example 56 (3 μM) plus capsaicin (1 μM), Example 56 (3 μM) plus acid (pH 5.5), or acid (pH 5.5) alone. The black bars above the traces designate addition and duration of solution applications. Spaces between horizontal bars represent periods in which cells were perfused with D-PBS, pH 7.4 alone. […]

T2 sequence (Q8NER1 whole entry): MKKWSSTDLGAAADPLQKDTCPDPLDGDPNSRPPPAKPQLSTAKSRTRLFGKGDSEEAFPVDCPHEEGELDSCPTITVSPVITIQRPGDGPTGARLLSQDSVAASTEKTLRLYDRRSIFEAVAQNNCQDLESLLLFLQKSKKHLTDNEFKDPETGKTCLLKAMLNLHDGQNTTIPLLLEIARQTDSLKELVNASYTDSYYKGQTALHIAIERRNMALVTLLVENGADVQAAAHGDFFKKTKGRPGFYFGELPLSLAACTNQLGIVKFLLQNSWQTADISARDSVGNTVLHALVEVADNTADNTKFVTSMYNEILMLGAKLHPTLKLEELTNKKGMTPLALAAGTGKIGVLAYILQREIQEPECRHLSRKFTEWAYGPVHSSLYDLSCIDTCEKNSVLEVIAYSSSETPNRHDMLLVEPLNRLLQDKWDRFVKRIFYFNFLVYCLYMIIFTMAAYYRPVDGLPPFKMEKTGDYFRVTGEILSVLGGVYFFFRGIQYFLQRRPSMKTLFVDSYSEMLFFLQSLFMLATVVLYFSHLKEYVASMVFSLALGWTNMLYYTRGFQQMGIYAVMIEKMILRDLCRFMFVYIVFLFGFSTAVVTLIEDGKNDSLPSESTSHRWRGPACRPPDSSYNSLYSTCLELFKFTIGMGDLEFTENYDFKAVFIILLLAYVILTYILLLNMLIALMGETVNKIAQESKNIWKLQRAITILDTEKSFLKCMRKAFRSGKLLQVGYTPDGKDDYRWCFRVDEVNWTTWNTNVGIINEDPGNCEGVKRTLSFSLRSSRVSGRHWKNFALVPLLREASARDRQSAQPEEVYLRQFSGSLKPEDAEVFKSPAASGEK
T1 sequence (Q8NER1 whole entry): as above

Row | IC50 [2] | block of TRPV1-mediated increase in intracellular calcium concentration in response to pH 5.5 (human TRPV1) | block of TRPV1-mediated increase in intracellular calcium concentration in response to capsaicin (human TRPV1) | Compound | Δ Temp (° C.) [1]
1 | 31 nM | did not completely block | completely blocked | CCCC1(CCC)C[C@@H](NC(=O)Nc2cccc3c2cnn3C)c2cc(F)ccc2O1 [Example 61, N-[(4R)-6-fluoro-2,2-dipropyl-3,4-dihydro-2H-chromen-4-yl]-N′-(1-methyl-1H-indazol-4-yl)urea] | 0.3 °C
2 |  | completely blocked | completely blocked | CC(=O)Nc1nc2c(Oc3cc(N4CCN(C(C)c5ccc(F)cc5)CC4)ncn3)cccc2s1 (centres unmarked) [AMG 628, reference compound] | 
3 | 50 nM | did not completely block | completely blocked | CCC1(CC)C[C@@H](NC(=O)Nc2cccc3c2cnn3C)c2cc(F)ccc2O1 [Example 26, N-[(4R)-2,2-diethyl-6-fluoro-3,4-dihydro-2H-chromen-4-yl]-N′-(1-methyl-1H-indazol-4-yl)urea] | 0.1 °C
4 | 16 nM | did not completely block | completely blocked | CCC1(CC)C[C@@H](NC(=O)Nc2cccc3c2cnn3C)c2cccc(OC(F)(F)F)c2O1 [Example 55, N-[(4R)-2,2-diethyl-8-(trifluoromethoxy)-3,4-dihydro-2H-chromen-4-yl]-N′-(1-methyl-1H-indazol-4-yl)urea] | 0.3 °C
